Data reported in ChEMBL document CHEMBL1159111, “Design, synthesis and biological evaluation of chrysin long-chain derivatives as potential anticancer agents” (Bioorg Med Chem, 2010).
≈ marks a conversion by molar mass, not a printed value.

What was measured:
[1] = tested on: HT-29; test: Antiproliferative activity against human HT-29 cells after 48 hrs by MTT assay; settings: HT-29, 48 h
[2] = target: Epidermal growth factor receptor (Homo sapiens, UniProt P00533); test: Inhibition of EGFR expressed in Sf9 cells assessed as inhibition of receptor autophosphorylation by DELFIA time resolved fluorimetry
Chain of Epidermal growth factor receptor (P00533 whole entry): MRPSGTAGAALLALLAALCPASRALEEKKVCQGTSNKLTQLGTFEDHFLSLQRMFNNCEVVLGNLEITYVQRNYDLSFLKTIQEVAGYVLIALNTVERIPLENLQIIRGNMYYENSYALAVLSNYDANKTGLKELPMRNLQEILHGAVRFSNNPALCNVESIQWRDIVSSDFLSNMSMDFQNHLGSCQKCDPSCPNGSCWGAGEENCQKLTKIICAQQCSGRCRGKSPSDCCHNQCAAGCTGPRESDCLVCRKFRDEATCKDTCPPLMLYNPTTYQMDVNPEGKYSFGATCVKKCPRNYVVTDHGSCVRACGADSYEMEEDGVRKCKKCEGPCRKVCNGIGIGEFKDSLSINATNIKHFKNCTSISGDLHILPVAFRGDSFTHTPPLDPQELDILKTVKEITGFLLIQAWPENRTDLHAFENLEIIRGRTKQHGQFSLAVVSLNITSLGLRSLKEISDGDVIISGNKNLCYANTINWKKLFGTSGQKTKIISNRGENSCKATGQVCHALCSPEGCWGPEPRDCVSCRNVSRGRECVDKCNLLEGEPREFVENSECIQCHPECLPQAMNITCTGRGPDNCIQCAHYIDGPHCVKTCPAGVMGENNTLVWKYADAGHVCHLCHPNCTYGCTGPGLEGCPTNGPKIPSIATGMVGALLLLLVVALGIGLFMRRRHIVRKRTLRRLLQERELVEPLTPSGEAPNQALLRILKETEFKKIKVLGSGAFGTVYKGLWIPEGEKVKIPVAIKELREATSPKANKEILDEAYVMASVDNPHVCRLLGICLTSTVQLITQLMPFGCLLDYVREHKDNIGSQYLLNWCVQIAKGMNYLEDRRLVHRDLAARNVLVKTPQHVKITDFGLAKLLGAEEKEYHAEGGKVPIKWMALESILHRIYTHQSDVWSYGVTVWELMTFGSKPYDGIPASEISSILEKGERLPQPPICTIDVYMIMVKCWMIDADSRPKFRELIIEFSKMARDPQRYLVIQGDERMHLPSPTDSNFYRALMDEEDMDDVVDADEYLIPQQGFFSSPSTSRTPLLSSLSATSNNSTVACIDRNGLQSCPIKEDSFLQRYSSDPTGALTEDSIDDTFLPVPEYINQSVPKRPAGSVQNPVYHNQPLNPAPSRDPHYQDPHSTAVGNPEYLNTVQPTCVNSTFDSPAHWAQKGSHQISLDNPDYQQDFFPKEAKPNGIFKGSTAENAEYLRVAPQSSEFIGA

Row | IC50 [1] | IC50 [2] | SMILES
1 | 77 µg/mL (≈ 194 µM) | 9120 nM | CCCCCCOC(=O)COc1cc(O)c2c(=O)cc(-c3ccccc3)oc2c1
2 | 20 µg/mL (≈ 33.7 µM) | 1590 nM | CCCCCCCCCCCCCCCCCCCCOC(=O)COc1cc(O)c2c(=O)cc(-c3ccccc3)oc2c1
3 | 19 µg/mL (≈ 32.1 µM) | 1350 nM | CCCCCCCCCCCCCCCCCCCCNC(=O)COc1cc(O)c2c(=O)cc(-c3ccccc3)oc2c1
4 | 15 µg/mL (≈ 26.6 µM) | 692 nM | CCCCCCCCCCCCCCCCCCOC(=O)COc1cc(O)c2c(=O)cc(-c3ccccc3)oc2c1
5 | 65 µg/mL (≈ 159 µM) | 6280 nM | CCCCCCCNC(=O)COc1cc(O)c2c(=O)cc(-c3ccccc3)oc2c1
6 | 51 µg/mL (≈ 120 µM) | 5330 nM | CCCCCCCCNC(=O)COc1cc(O)c2c(=O)cc(-c3ccccc3)oc2c1
7 | 39 µg/mL (≈ 89.1 µM) | 3580 nM | CCCCCCCCCNC(=O)COc1cc(O)c2c(=O)cc(-c3ccccc3)oc2c1
8 | 16 µg/mL (≈ 33.4 µM) |  | CCCCCCCCCCCCNC(=O)COc1cc(O)c2c(=O)cc(-c3ccccc3)oc2c1
9 | 24 µg/mL (≈ 49.9 µM) | 1720 nM | CCCCCCCCCCCCOC(=O)COc1cc(O)c2c(=O)cc(-c3ccccc3)oc2c1
10 | 16 µg/mL (≈ 31.5 µM) |  | CCCCCCCCCCCCCCOC(=O)COc1cc(O)c2c(=O)cc(-c3ccccc3)oc2c1
11 | 8.7 µg/mL (≈ 16.2 µM) | 48 nM | CCCCCCCCCCCCCCCCOC(=O)COc1cc(O)c2c(=O)cc(-c3ccccc3)oc2c1
12 | 8 µg/mL (≈ 15.8 µM) | 316 nM | CCCCCCCCCCCCCCNC(=O)COc1cc(O)c2c(=O)cc(-c3ccccc3)oc2c1
13 | 43 µg/mL (≈ 98.1 µM) | 4960 nM | CCCCCCCCCOC(=O)COc1cc(O)c2c(=O)cc(-c3ccccc3)oc2c1
14 | 58 µg/mL (≈ 141 µM) | 7230 nM | CCCCCCCOC(=O)COc1cc(O)c2c(=O)cc(-c3ccccc3)oc2c1
15 | 31 µg/mL (≈ 68.5 µM) | 3110 nM | CCCCCCCCCCOC(=O)COc1cc(O)c2c(=O)cc(-c3ccccc3)oc2c1
16 | 11 µg/mL (≈ 19.5 µM) | 464 nM | CCCCCCCCCCCCCCCCCCNC(=O)COc1cc(O)c2c(=O)cc(-c3ccccc3)oc2c1
17 | 4.2 µg/mL (≈ 7.84 µM) | 35 nM | CCCCCCCCCCCCCCCCNC(=O)COc1cc(O)c2c(=O)cc(-c3ccccc3)oc2c1
18 | 51 µg/mL (≈ 120 µM) | 5840 nM | CCCCCCCCOC(=O)COc1cc(O)c2c(=O)cc(-c3ccccc3)oc2c1
19 | 25 µg/mL (≈ 55.4 µM) | 2140 nM | CCCCCCCCCCNC(=O)COc1cc(O)c2c(=O)cc(-c3ccccc3)oc2c1
20 | 67 µg/mL (≈ 169 µM) | 8710 nM | CCCCCCNC(=O)COc1cc(O)c2c(=O)cc(-c3ccccc3)oc2c1
